# Key:
# [1] = Half life in Sprague-Dawley rat at 10 mg/kg, iv; format: ADME, organism-based; parameters: dose 10 mg/kg, route intravenous; settings: in vivo
# [2] = system: Plasma; test: Metabolic stability in rat plasma after 2 hrs; format: ADME, cell-free
# [3] = AUC (0 to infinity) in Sprague-Dawley rat at 10 mg/kg, iv; format: ADME, organism-based; parameters: time infinity, dose 10 mg/kg, route intravenous; settings: plasma
# [4] = Half life in human microsomes; format: ADME, Microsome
# [5] = biological target: Voltage-dependent T-type calcium channel subunit alpha-1G (Homo sapiens, UniProt O43497); test: Inhibition of T-type calcium channel subunit alpha-1G (unknown origin) expressed in HEK293 cells assessed as inactivation of channel current at holding potential of 30 to 100mV by whole-cell patch clamp method; format: cell-based
# [6] = system: HEK293; test: Selectivity ratio of IC50 for human ERG to IC50 for T-type calcium channel subunit alpha-1G (unknown origin) expressed in human HEK293 cells; format: cell-based
# [7] = system: HEK293; test: Selectivity ratio of IC50 for L-type calcium channel subunit-1C (unknown origin) to IC50 for T-type calcium channel subunit alpha-1G (unknown origin) expressed in HEK293 cells; format: cell-based; settings: Homo sapiens
# [8] = Cmax in Sprague-Dawley rat at 10 mg/kg, po; format: ADME, organism-based; parameters: dose 10 mg/kg, route oral; settings: in vivo
# [9] = biological target: Voltage-gated inwardly rectifying potassium channel KCNH2 (Homo sapiens, UniProt Q12809); test: Inhibition of human ERG by whole-cell patch clamp method
# [10] = Tmax in Sprague-Dawley rat at 10 mg/kg, po; format: ADME, organism-based; parameters: dose 10 mg/kg, route oral; settings: in vivo
# [11] = biological target: Voltage-dependent L-type calcium channel subunit alpha-1C (Homo sapiens, UniProt Q13936); test: Inhibition of L-type calcium channel subunit-1C (unknown origin) expressed in HEK293 cells by whole-cell patch clamp method; format: cell-based
# [12] = Bioavailability in Sprague-Dawley rat at 10 mg/kg, […]; format: ADME, organism-based; settings: in vivo
# [13] = Half life in Sprague-Dawley rat at 10 mg/kg, po; format: ADME, organism-based; parameters: dose 10 mg/kg, route oral; settings: in vivo
# [14] = AUC (0 to infinity) in Sprague-Dawley rat at 10 mg/kg, po; format: ADME, organism-based; parameters: time infinity, dose 10 mg/kg, route oral; settings: plasma
# Chain of Voltage-dependent T-type calcium channel subunit alpha-1G (O43497 whole entry): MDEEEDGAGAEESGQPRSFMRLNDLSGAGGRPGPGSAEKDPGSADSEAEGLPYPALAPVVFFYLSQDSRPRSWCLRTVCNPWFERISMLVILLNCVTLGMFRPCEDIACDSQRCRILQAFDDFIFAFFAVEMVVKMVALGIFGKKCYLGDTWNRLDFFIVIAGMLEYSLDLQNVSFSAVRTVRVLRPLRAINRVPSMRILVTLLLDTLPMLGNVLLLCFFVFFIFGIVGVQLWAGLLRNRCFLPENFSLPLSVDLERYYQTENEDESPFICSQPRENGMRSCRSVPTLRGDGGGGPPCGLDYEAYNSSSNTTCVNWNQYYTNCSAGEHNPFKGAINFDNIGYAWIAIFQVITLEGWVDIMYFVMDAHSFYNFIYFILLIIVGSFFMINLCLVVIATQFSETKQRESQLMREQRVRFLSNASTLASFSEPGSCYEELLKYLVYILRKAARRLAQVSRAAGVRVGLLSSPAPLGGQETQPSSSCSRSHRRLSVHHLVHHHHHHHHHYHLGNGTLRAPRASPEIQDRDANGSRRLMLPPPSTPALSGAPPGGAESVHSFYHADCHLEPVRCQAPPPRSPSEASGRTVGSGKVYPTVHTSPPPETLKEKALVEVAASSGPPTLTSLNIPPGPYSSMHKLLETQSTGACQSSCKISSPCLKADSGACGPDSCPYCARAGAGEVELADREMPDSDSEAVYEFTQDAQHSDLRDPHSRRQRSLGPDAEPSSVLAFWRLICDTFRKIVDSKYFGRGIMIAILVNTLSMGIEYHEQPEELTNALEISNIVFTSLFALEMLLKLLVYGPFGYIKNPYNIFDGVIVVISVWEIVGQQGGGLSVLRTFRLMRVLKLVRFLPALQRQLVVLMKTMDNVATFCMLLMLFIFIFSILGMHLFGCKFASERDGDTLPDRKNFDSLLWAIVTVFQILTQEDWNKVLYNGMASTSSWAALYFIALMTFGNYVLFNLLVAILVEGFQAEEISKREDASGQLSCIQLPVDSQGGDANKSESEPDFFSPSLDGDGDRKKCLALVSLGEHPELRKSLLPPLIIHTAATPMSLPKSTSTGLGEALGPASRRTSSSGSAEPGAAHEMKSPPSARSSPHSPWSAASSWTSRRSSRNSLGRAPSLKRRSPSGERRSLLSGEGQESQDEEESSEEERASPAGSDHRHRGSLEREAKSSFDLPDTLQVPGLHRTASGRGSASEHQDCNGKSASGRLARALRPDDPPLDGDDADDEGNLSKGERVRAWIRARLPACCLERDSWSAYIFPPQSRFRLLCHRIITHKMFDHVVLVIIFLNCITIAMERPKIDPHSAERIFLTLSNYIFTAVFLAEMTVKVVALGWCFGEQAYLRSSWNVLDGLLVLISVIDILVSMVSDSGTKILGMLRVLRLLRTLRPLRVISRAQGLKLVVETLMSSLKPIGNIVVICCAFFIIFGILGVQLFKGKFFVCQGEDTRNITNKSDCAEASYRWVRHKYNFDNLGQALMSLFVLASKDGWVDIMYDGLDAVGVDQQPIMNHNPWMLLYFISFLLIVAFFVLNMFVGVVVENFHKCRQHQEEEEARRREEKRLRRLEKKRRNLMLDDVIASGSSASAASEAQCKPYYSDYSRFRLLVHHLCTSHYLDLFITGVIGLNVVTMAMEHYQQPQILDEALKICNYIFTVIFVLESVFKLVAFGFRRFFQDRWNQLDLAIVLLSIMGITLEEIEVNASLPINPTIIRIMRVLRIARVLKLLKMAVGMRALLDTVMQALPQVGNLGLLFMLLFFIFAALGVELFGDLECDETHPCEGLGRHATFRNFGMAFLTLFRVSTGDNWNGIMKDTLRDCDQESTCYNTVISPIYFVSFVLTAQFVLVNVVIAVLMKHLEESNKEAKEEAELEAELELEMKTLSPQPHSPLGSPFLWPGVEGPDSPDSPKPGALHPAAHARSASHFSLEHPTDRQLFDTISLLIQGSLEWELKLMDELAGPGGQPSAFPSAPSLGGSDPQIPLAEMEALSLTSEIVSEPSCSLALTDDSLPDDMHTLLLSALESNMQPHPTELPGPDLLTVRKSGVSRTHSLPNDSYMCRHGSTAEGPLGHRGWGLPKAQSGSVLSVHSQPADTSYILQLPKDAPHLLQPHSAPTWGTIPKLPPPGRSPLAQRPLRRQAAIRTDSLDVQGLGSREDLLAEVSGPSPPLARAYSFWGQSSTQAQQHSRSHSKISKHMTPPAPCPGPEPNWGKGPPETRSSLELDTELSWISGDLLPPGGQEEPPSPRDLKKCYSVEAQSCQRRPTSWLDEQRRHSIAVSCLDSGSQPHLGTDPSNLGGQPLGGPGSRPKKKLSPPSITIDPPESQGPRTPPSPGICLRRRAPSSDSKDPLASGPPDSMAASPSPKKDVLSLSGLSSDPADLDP
# Chain of Voltage-gated inwardly rectifying potassium channel KCNH2 (Q12809 whole entry): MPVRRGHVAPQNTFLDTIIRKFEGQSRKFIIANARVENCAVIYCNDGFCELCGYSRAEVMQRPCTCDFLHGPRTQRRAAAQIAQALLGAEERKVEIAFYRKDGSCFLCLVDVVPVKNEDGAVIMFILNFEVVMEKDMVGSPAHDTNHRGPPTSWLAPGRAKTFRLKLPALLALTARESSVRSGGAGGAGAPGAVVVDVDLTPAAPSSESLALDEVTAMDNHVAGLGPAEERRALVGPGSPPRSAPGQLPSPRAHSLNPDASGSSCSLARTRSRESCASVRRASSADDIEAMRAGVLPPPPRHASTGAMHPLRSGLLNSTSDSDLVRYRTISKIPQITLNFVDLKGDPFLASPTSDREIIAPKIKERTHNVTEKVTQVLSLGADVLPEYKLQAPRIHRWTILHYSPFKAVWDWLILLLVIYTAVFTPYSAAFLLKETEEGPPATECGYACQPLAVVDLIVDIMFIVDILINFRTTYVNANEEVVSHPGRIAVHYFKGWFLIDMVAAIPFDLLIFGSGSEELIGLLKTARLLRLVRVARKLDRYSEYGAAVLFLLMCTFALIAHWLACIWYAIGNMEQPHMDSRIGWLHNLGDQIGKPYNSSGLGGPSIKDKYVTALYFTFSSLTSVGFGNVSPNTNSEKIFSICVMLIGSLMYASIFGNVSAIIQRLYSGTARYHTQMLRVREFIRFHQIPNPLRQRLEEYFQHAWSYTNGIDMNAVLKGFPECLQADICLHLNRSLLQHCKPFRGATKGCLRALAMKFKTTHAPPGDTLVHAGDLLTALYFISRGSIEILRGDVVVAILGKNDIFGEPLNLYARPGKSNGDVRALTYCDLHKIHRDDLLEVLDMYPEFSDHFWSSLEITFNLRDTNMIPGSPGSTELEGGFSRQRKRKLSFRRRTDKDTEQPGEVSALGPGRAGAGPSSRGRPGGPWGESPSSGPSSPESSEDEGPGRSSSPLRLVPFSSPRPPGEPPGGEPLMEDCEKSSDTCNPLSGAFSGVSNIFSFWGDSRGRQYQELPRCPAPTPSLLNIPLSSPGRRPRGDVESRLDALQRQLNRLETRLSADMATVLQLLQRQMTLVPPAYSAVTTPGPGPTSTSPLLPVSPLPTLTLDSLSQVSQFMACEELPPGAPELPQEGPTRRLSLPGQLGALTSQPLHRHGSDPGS
half-life [1] [h],Stability [2],AUC(0-inf) [3] [ng·h/mL],half-life [4] [h],IC50 [5] [nM],Cmax [8] [ng/mL],Tmax [10] [h],IC50 [11] [nM],bioavailability [12] [%],half-life [13] [h],AUC(0-inf) [14] [ng·h/mL],SMILES,Ratio IC50 [6],Ratio IC50 [7],IC50 [9] [nM]
1.3,Stable,906,2,,,,,,,,COC(=O)C(CCCN(C)CCCc1nc2ccccc2[nH]1)(c1ccc(Br)cc1)C(C)C (stereo unspecified),,,
,,,,2650,,,,,,,COC(=O)C(CCCN1CCC(c2ccccc2OC)CC1)(c1ccc(Br)cc1)C(C)C (stereo unspecified),,,
1.76,Stable,9620,4,56,4580,0.5,5420,60.3,0.795,5800,COC(=O)C(CCC(=O)N(C)CCCc1nc2ccccc2[nH]1)(c1ccc(Br)cc1)C(C)C (stereo unspecified),> 220,96.8,12500
4.9,Stable,5080,3.67,654,218,0.5,5900,9.2,2.21,467,COC(=O)C(CCC(=O)N1CCN(c2ccccc2OC)CC1)(c1ccc(Br)cc1)C(C)C (stereo unspecified),,,
,,,,1360,,,,,,,CC(C)C(CCCN(C)CCCc1nc2ccccc2[nH]1)(C(=O)O)c1ccc(Br)cc1 (stereo unspecified),,,2340
,,,,3260,,,,,,,COc1ccccc1N1CCN(CCCC(C(=O)O)(c2ccc(Br)cc2)C(C)C)CC1 (stereo unspecified),,,3960

SMILES,half-life [1] [h],Stability [2],AUC(0-inf) [3] [ng·h/mL],half-life [4] [h],IC50 [5] [nM],Cmax [8] [ng/mL],Tmax [10] [h],IC50 [11] [nM],bioavailability [12] [%],half-life [13] [h],AUC(0-inf) [14] [ng·h/mL],Ratio IC50 [6],Ratio IC50 [7],IC50 [9] [nM]
COC(=O)C(CCCN1CC=C(c2ccccc2OC)CC1)(c1ccc(Br)cc1)C(C)C (stereo unspecified),,,,,3240,,,,,,,,,1260
